Source: patent publication US20150175877A1, “ENVIRONMENTALLY ACCEPTABLE MULTIFUNCTIONAL ADDITIVE” (SCHLUMBERGER TECHNOLOGY CORPORATION, priority 2013, published 2015)

Test system: bacteria in North Sea location water
Experiment: Bacteria growth study in water using dipslides
Assay type: cell-based
Details: 35° C., dipslide; for Bacteria count: two replicated tests
Protocol: Bacteria Growth Study at 35° C. [95° F.]
Following is the qualitative study of bacteria growth in water using dipslides. A dipslide is used to test the presence of microorganisms in liquids. Dipslides are the fastest and easiest way to measure the microbial activity in liquid-based systems and in this testing it is used to evaluate the performance of Bodoxin AE.

For OCOCCOCO [Bodoxin AE, (ethylenedioxy)dimethanol], the “Bacteria count in location water when biocide is used (in words)” value (compared with tap or distilled water) was “reduced significantly reaching the same level as tap or distilled water”, the Bacteria count (biocide conc. 0.50 gpt) was <10^3 (CFU/ml) and the Bacteria count (biocide conc. 1.00 gpt) was <10^3 (CFU/ml). The Bacteria count (biocide conc. 1.50 gpt) was <10^3 (CFU/ml).
